Assay results from US11484517B2, “Combination comprising a PPAR agonist such as elafibranor and an acetyl-CoA carboxylase (ACC) inhibitor” (GENFIT, priority 2017, dated 2022).

How the values were obtained:
[1] = test system: CDFF-fed mice; assay: mouse fibrosing-NASH model, CDFF diet (8 weeks); assay type: in vivo, C57Bl/6J mice
Protocol: The preventive effects of the combinations of elafibranor with selonsertib, GKT-831 or GS-0976 were assessed in mice fed a choline-deficient, […] diet (CDAA) supplemented with 2% cholesterol, 30% milk fat diet and high fructose corn syrup 55 (55% fructose/45% glucose for a final concentration of 42 g/L) in drinking water (Mells et al J Nutr Biochem 2015) (CDFF diet). 5-6 weeks old male C57Bl/6J mice were fed a control (CSAA) diet (n=4), CDFF (n=12), or CDFF supplemented with elafibranor (1 or 3 mg/kg/day), selonsertib (30 mg/kg/day), GKT-831 ([…]) alone or in combination (n=8 per group) for 8 weeks.
The body weight, the food and water intake were monitored twice per week. On the last day of treatment, plasma samples were obtained from retro-orbital blood sampling and mice were sacrificed after a 6 h-fasting period. The liver was rapidly excised for biochemical and histological analyses. […]
A technician blinded to the source of each liver specimen performed histological examinations. […] Briefly, steatosis, lobular inflammation and hepatocyte ballooning were scored. […]
(§1) Using Quant Center software (3D Histech, including Pattern Quant and Histo Quant modules), collagen-stained areas were quantified. […] The fibrosis area was then expressed as the percentage of the collagen surface to the whole tissue per animal.
(§2) The hepatic collagen content was determined using the appropriate QuickZyme kit (Total collagen assay, cat # QZB-totcol2). […]
(§3) Complete hydrolysis of tissue samples in 6M HCl at 95° C. is required before dosing the hydroxyproline. The assay results in the generation of a chromogen with a maximum absorbance at 570 nm. Results are expressed as mg of collagen/g of liver. […]
The plasmatic concentration of PIIINP was determined using an ELISA assay from Cloud-Clone Corp (cat # SEA573Mu), according to the manufacturer's instructions. […] The enzyme-substrate reaction is terminated by the addition of sulphuric acid solution and the color change is measured spectrophotometrically at a wavelength of 450 nm±10 nm. […]

[2] = test system: rats fed a CDAA+1% cholesterol diet; assay: chronic CDAA+1% cholesterol fibrosing NASH-model of rats (12 weeks); assay type: in vivo, Wistar rats; conditions: liver; Percentage over the untreated CDAA + 1% cholesterol rats; GFT505 3 mg/kg/d, OCA 10 mg/kg/d
Protocol: Evaluation of Elafibranor, OCA and the combination Elafibranor+OCA in a chronic CDAA+1% cholesterol model (12 weeks).
The preventive effects of Elafibranor alone, OCA alone and the combination of both were assessed in a fibrosing NASH-model of rats fed a CDAA+1% cholesterol diet. 150-175 g male Wistar rats were fed a control (CSAA) diet, CDAA+1% cholesterol diet, or CDAA+1% cholesterol diet supplemented with Elafibranor 1, 3 and 10 mg/kg/day, OCA 10 and 30 mg/kg/day or combined drugs (Elafibranor 1, 3 and 10 mg/kg/day combined to OCA 10 mg/kg/day) for 12 weeks.
The body weight and the food intake were monitored twice per week. On the last day of treatment, rats were sacrificed after a 6 h fasting period. The liver was rapidly excised for biochemical and histological studies.
A technician blinded to the source of each liver specimen performed histological examinations. Virtual slides were generated using the Pannoramic 250 scanner from 3D Histech. […] Briefly, steatosis, lobular inflammation and hepatocytes ballooning were scored. […]
as §1, §2, §3
Quantitative PCR was then carried out using the CFX96 TOUCH Real-Time PCR Detection System (Biorad). […]
Expression levels were normalized using the expression of RPLP0 gene as a housekeeping gene of reference in samples. […] Expression levels were determined using the standard curve equation for both the housekeeping gene and the target gene (taking into account the specific PCR efficiency of each target gene).

[3] = test system: TGFβ1-induced hHSC; assay: α-SMA ELISA in TGFβ1-induced hHSC; assay type: cell-based, human
Protocol: (§4) The human primary hepatic stellate cells (hHSC) (Innoprot) were cultured under standard conditions, as described above.
The level of α-SMA was measured using a Sandwich ELISA. Briefly, the wells of an ELISA plate were first coated with the capture antibody (mouse monoclonal anti-ACTA2, Abnova) at 4° C. overnight. […] The cell lysates were transferred into the wells for binding to the capture antibody for a period of 2 h at room temperature. After the washing procedure, the detection antibody (biotinylated mouse monoclonal anti-ACTA2, Abnova) was added for 2 hours at room temperature followed by 3 washes. […] Upon oxidation, TMB forms a water-soluble blue reaction product that becomes yellow with addition of sulfuric acid (solution stop), enabling accurate measurement of the intensity at 450 nm using a spectrophotometer. The developed color is directly proportional to the amount of α-SMA present in the lysate.
as §4

SMILES: Cc1cc(F)c(C(=O)Nc2cccc(-c3nncn3C(C)C)n2)cc1-n1cnc(C2CC2)c1 [Selonsertib, selonsertib]
- hepatic fibrosis (histology, hepatic collagen content, release of PIIINP and TIMP-1) ([1]; 8 weeks, elafibranor 3 mg/kg/day, selonsertib 30 mg/kg/day): improved hepatic fibrosis

SMILES: CC[C@H]1[C@@H](O)[C@@H]2[C@H](CC[C@]3(C)[C@@H]([C@H](C)CCC(=O)O)CC[C@@H]23)[C@@]2(C)CC[C@@H](O)C[C@@H]12 [OCA, obeticholic acid]
- CCR5 mRNA level (marker of inflammation) [2]: 81% ± 28%
- TGFβ1 mRNA level [2]: 110% ± 23%
- TIMP1 mRNA level [2]: 110% ± 43%

SMILES: CN(C)c1cccc(-c2c3c(=O)n(-c4ccccc4Cl)[nH]c3cc(=O)n2C)c1 [GKT-831, 2-(2-chlorophenyl)-4-[3-(dimethylamino)phenyl]-5-methyl-1H-pyrazolo[4,3-c]pyridine-3,6(2H,5H)-dione]
- effect on NASH and fibrosis (inflammatory infiltrates, NAFLD activity score, fibrosis) ([1]; GKT-831 60 mg/kg/day, elafibranor 1 mg/kg/day): no beneficial effect

SMILES: CCCCOCCOc1ccc(-c2ccc3c(c2)/C=C(/C(=O)Nc2ccc([S@@+]([O-])Cc4cncn4CCC)cc2)CCCN3CC(C)C)cc1 [CVC, Cenicriviroc]
- α-SMA inhibition, single agent ([3]; 5 μM alone, TGFβ1-induced hHSC): does not show any antifibrotic activity
- antifibrotic effect (α-SMA), single agent, in words ([3]; TGFβ1-activated hHSC, all doses): did not show a significant effect at all doses

SMILES: COc1ccccc1[C@H](Cn1c(=O)n(C(C)(C)C(=O)O)c(=O)c2c(C)c(-c3ncco3)sc21)OC1CCOCC1 [GS-0976]
- effect on liver fat and body weight ([1]; GS-0976 30 mg/kg/day alone): mild beneficial effect
